Test results as given in PubChem BioAssay (NCI).
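Following 48 hours of exposure in 96-well plates, responses at five concentrations were used to interpolate endpoints linearly. At the TGI there is no net growth.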

The compounds below were run on KM20L2 colon (assay: DTP human tumour cell line panel, 48 h).

**Q.** Which TGI does the source give for Cc1ccc(C(=O)NCc2ccccc2)cc1N=NN(C)C here?
**A.** > 100 µM

What follows are compounds tested on SR leukemia (assay: DTP human tumour cell line panel, 48 h).

**Q.** Which TGI does the source give for Cc1ccc(C(=O)NCc2ccccc2)cc1N=NN(C)C here?
**A.** > 100 µM

**Q.** c1ccc2c3[nH]c(c2c1)=Nc1ccc(cc1)-c1nc2ccc(cc2o1)N=c1[nH]c(c2ccccc12)=Nc1ccc2nc(oc2c1)-c1ccc(cc1)N=3 was tested. Which TGI did it give?
**A.** 71.6 µM

**Q.** COc1cccc(CC(=O)N2CCN(CCCc3ccccc3)CC2)c1 was tested. Which TGI did it give?
**A.** > 100 µM

**Q.** Which TGI does the source give for Cn1c(=S)c2[nH]c(SCCCc3ccccc3)nc2n(C)c1=O here?
**A.** 27.4 µM

**Q.** With O=C1CC(=O)NC(=NN2C(=O)/C(=C/c3ccc(Cl)c(Cl)c3)N=C2c2ccccc2)N1 as the compound, how does the TGI read?
**A.** 36.3 µM

**Q.** For CC1=NC(C)(COC(=O)C2(C)NC(C)(CO)CO2)COC1=O (stereo unspecified), which TGI is on record?
**A.** > 100 µM

These compounds were tested on OVCAR-3 ovarian (assay: DTP human tumour cell line panel, 48 h).

**Q.** With Cc1ccc(C(=O)NCc2ccccc2)cc1N=NN(C)C as the compound, how does the TGI read?
**A.** > 100 µM

**Q.** With c1ccc2c3[nH]c(c2c1)=Nc1ccc(cc1)-c1nc2ccc(cc2o1)N=c1[nH]c(c2ccccc12)=Nc1ccc2nc(oc2c1)-c1ccc(cc1)N=3 as the compound, how does the TGI read?
**A.** > 100 µM

**Q.** COc1cccc(CC(=O)N2CCN(CCCc3ccccc3)CC2)c1 was tested. Which TGI did it give?
**A.** > 100 µM

**Q.** With Cn1c(=S)c2[nH]c(SCCCc3ccccc3)nc2n(C)c1=O as the compound, how does the TGI read?
**A.** > 100 µM

**Q.** For O=C1CC(=O)NC(=NN2C(=O)/C(=C/c3ccc(Cl)c(Cl)c3)N=C2c2ccccc2)N1, which TGI is on record?
**A.** 49.4 µM

**Q.** Which TGI does the source give for CC1=NC(C)(COC(=O)C2(C)NC(C)(CO)CO2)COC1=O (stereo unspecified) here?
**A.** > 100 µM

**Q.** With CC(=O)NC1C(Sc2ncn(C3OC(CO)C(O)C(O)C3NC(C)=O)n2)OC(CO)C(O)C1O (stereo unspecified) as the compound, how does the TGI read?
**A.** > 100 µM

These compounds were tested on SNB-75 CNS (assay: DTP human tumour cell line panel, 48 h).

**Q.** c1ccc2c3[nH]c(c2c1)=Nc1ccc(cc1)-c1nc2ccc(cc2o1)N=c1[nH]c(c2ccccc12)=Nc1ccc2nc(oc2c1)-c1ccc(cc1)N=3 was tested. Which TGI did it give?
**A.** > 100 µM

**Q.** Which TGI does the source give for Cn1c(=S)c2[nH]c(SCCCc3ccccc3)nc2n(C)c1=O here?
**A.** 84.5 µM

**Q.** With O=C1CC(=O)NC(=NN2C(=O)/C(=C/c3ccc(Cl)c(Cl)c3)N=C2c2ccccc2)N1 as the compound, how does the TGI read?
**A.** 81.8 µM

**Q.** With CC1=NC(C)(COC(=O)C2(C)NC(C)(CO)CO2)COC1=O (stereo unspecified) as the compound, how does the TGI read?
**A.** > 100 µM

These compounds were tested on BT-549 breast (assay: DTP human tumour cell line panel, 48 h).

**Q.** With Cc1ccc(C(=O)NCc2ccccc2)cc1N=NN(C)C as the compound, how does the TGI read?
**A.** > 100 µM

**Q.** c1ccc2c3[nH]c(c2c1)=Nc1ccc(cc1)-c1nc2ccc(cc2o1)N=c1[nH]c(c2ccccc12)=Nc1ccc2nc(oc2c1)-c1ccc(cc1)N=3 was tested. Which TGI did it give?
**A.** > 100 µM

**Q.** Which TGI does the source give for COc1cccc(CC(=O)N2CCN(CCCc3ccccc3)CC2)c1 here?
**A.** > 100 µM

**Q.** Which TGI does the source give for Cn1c(=S)c2[nH]c(SCCCc3ccccc3)nc2n(C)c1=O here?
**A.** > 100 µM

**Q.** O=C1CC(=O)NC(=NN2C(=O)/C(=C/c3ccc(Cl)c(Cl)c3)N=C2c2ccccc2)N1 was tested. Which TGI did it give?
**A.** 49.2 µM

**Q.** For CC1=NC(C)(COC(=O)C2(C)NC(C)(CO)CO2)COC1=O (stereo unspecified), which TGI is on record?
**A.** > 100 µM

**Q.** With CC(=O)NC1C(Sc2ncn(C3OC(CO)C(O)C(O)C3NC(C)=O)n2)OC(CO)C(O)C1O (stereo unspecified) as the compound, how does the TGI read?
**A.** > 100 µM

Each compound was assayed on DU-145 prostate (assay: DTP human tumour cell line panel, 48 h).

**Q.** Which TGI does the source give for Cc1ccc(C(=O)NCc2ccccc2)cc1N=NN(C)C here?
**A.** > 100 µM

**Q.** Which TGI does the source give for c1ccc2c3[nH]c(c2c1)=Nc1ccc(cc1)-c1nc2ccc(cc2o1)N=c1[nH]c(c2ccccc12)=Nc1ccc2nc(oc2c1)-c1ccc(cc1)N=3 here?
**A.** > 100 µM

**Q.** Which TGI does the source give for COc1cccc(CC(=O)N2CCN(CCCc3ccccc3)CC2)c1 here?
**A.** > 100 µM

**Q.** For Cn1c(=S)c2[nH]c(SCCCc3ccccc3)nc2n(C)c1=O, which TGI is on record?
**A.** > 100 µM

**Q.** With O=C1CC(=O)NC(=NN2C(=O)/C(=C/c3ccc(Cl)c(Cl)c3)N=C2c2ccccc2)N1 as the compound, how does the TGI read?
**A.** > 100 µM

**Q.** For CC1=NC(C)(COC(=O)C2(C)NC(C)(CO)CO2)COC1=O (stereo unspecified), which TGI is on record?
**A.** > 100 µM

**Q.** How did the TGI turn out when CC(=O)NC1C(Sc2ncn(C3OC(CO)C(O)C(O)C3NC(C)=O)n2)OC(CO)C(O)C1O (stereo unspecified) was run?
**A.** > 100 µM

Each compound was assayed on NCI-H460 lung (assay: DTP human tumour cell line panel, 48 h).

**Q.** Which TGI does the source give for Cc1ccc(C(=O)NCc2ccccc2)cc1N=NN(C)C here?
**A.** > 100 µM

**Q.** With c1ccc2c3[nH]c(c2c1)=Nc1ccc(cc1)-c1nc2ccc(cc2o1)N=c1[nH]c(c2ccccc12)=Nc1ccc2nc(oc2c1)-c1ccc(cc1)N=3 as the compound, how does the TGI read?
**A.** 20.5 µM

**Q.** How did the TGI turn out when COc1cccc(CC(=O)N2CCN(CCCc3ccccc3)CC2)c1 was run?
**A.** > 100 µM

**Q.** With Cn1c(=S)c2[nH]c(SCCCc3ccccc3)nc2n(C)c1=O as the compound, how does the TGI read?
**A.** 42.1 µM

**Q.** O=C1CC(=O)NC(=NN2C(=O)/C(=C/c3ccc(Cl)c(Cl)c3)N=C2c2ccccc2)N1 was tested. Which TGI did it give?
**A.** 74.9 µM

**Q.** CC1=NC(C)(COC(=O)C2(C)NC(C)(CO)CO2)COC1=O (stereo unspecified) was tested. Which TGI did it give?
**A.** > 100 µM

**Q.** Which TGI does the source give for CC(=O)NC1C(Sc2ncn(C3OC(CO)C(O)C(O)C3NC(C)=O)n2)OC(CO)C(O)C1O (stereo unspecified) here?
**A.** > 100 µM

Each compound was assayed on HL-60(TB) leukemia (assay: DTP human tumour cell line panel, 48 h).

**Q.** How did the TGI turn out when Cc1ccc(C(=O)NCc2ccccc2)cc1N=NN(C)C was run?
**A.** > 100 µM

**Q.** How did the TGI turn out when c1ccc2c3[nH]c(c2c1)=Nc1ccc(cc1)-c1nc2ccc(cc2o1)N=c1[nH]c(c2ccccc12)=Nc1ccc2nc(oc2c1)-c1ccc(cc1)N=3 was run?
**A.** 12.4 µM

**Q.** Which TGI does the source give for COc1cccc(CC(=O)N2CCN(CCCc3ccccc3)CC2)c1 here?
**A.** > 100 µM

**Q.** Which TGI does the source give for Cn1c(=S)c2[nH]c(SCCCc3ccccc3)nc2n(C)c1=O here?
**A.** > 100 µM

**Q.** For CC1=NC(C)(COC(=O)C2(C)NC(C)(CO)CO2)COC1=O (stereo unspecified), which TGI is on record?
**A.** > 100 µM

**Q.** How did the TGI turn out when CC(=O)NC1C(Sc2ncn(C3OC(CO)C(O)C(O)C3NC(C)=O)n2)OC(CO)C(O)C1O (stereo unspecified) was run?
**A.** > 100 µM

Each compound was assayed on EKVX NSCLC (assay: DTP human tumour cell line panel, 48 h).

**Q.** How did the TGI turn out when Cc1ccc(C(=O)NCc2ccccc2)cc1N=NN(C)C was run?
**A.** > 100 µM

**Q.** With c1ccc2c3[nH]c(c2c1)=Nc1ccc(cc1)-c1nc2ccc(cc2o1)N=c1[nH]c(c2ccccc12)=Nc1ccc2nc(oc2c1)-c1ccc(cc1)N=3 as the compound, how does the TGI read?
**A.** > 100 µM

**Q.** How did the TGI turn out when COc1cccc(CC(=O)N2CCN(CCCc3ccccc3)CC2)c1 was run?
**A.** > 100 µM

**Q.** How did the TGI turn out when Cn1c(=S)c2[nH]c(SCCCc3ccccc3)nc2n(C)c1=O was run?
**A.** 79.3 µM

**Q.** CC1=NC(C)(COC(=O)C2(C)NC(C)(CO)CO2)COC1=O (stereo unspecified) was tested. Which TGI did it give?
**A.** > 100 µM

**Q.** How did the TGI turn out when CC(=O)NC1C(Sc2ncn(C3OC(CO)C(O)C(O)C3NC(C)=O)n2)OC(CO)C(O)C1O (stereo unspecified) was run?
**A.** > 100 µM
